Assay results published in patent publication US20190247333A1, “METHOD OF REDUCTION IN […] […]” (ZOGENIX INTERNATIONAL LIMITED, priority 2017, published 2019).

Legend:
[1] = tested on: patients with Dravet syndrome; conditions: cited from earlier work
[2] = tested on: patients with Dravet syndrome; assay: Open-label extension (OLE) study (Study 1503); type: in vivo, human; conditions: for median decrease in MCSF over the entire observation period compared to baseline: OLE interim analysis
Procedure: Table 7 presents additional analysis of seizure free intervals in the two placebo-controlled studies prior to the OLE. Inclusion criteria in both studies were for patients aged ≥2 years. Subgroup analysis was performed on patients between ≥2 to <6 years and on patients ≥6 years.
Patients (2-18 years old) entered a long-term, OLE study (Study 1503) after completing either Study 1 or Study 1504: Study 1 (14 wk; FFA: 0, 0.2, or 0.8 mg/kg/d; max, 30 mg/d in stiripentol [STP]-free AED regimens) or Study 1504 (15 wk; FFA: 0.5 mg/kg/d; max, 20 mg/d in AED+STP regimens). In 1503, all patients received 0.2 mg/kg/d FFA for 1 month; dosing was titrated to therapeutic effect thereafter.
A total of 42 of 158 (26.6%) patients who enrolled in the OLE were <6 years old at time of entry into the OLE study. The median baseline monthly convulsive seizure frequency (MCSF) prior to double-blind treatment was 10.7 seizures/month (range, 4.0 to 147.3). At the time of the OLE interim analysis, the median decrease in MCSF over the entire observation period compared to baseline was −76% (P<0.001) compared with −64% in the overall study population during the same time period.

[3] = tested on: patients with Dravet syndrome; assay: Study 1: Phase 3 randomized, double-blind, placebo-controlled study of ZX008 as adjunctive therapy (ZX008-1501/1502); type: in vivo, human; conditions: for mean (SD) number of non-convulsive seizures (all types) per 28 days: Baseline; for reduction from Baseline in non-convulsive seizure frequency: T+M Period; for mean (SD) non-convulsive seizure frequency per 28 days: end of T+M Period
Procedure: The first 119 subjects to be randomized in both identical studies combined were analyzed and reported as Study 1 (FIG. 1), covered by a Statistical Analysis Plan (SAP).
Primary and key secondary endpoints in the Study 1 SAP were pre-determined. All patients were treated twice per day over a period of 14 weeks using an oral syringe to administer the formulation. The treatment period included a two-week titration period and a 12-week maintenance period.
The initial results of Study 1 are outlined below. The randomized, double blind, placebo controlled, Phase 3 study enrolled 119 patients across sites in the United States, Canada, Europe and Australia. The median age of patients was 8 years, the mean age of patients was 9 years (range, 2-18 years) (FIG. 2).
Patients were titrated to their target dose over two weeks, and then remained at that fixed dose for 12 weeks. The mean baseline convulsive seizure frequency across the study groups was approximately 40 seizures per month. 110 (92%) patients completed the study (85% 0.8 mg/kg/day; 100% 0.2 mg/kg/day; 93% placebo).
The proportion of patients who achieved ≥75% seizure reductions, a secondary (non-key) efficacy measure, is also presented.
The mean number of convulsive seizure free days, defined as a day for which diary data are available and no convulsive seizures have been reported, was determined for each treatment group during the Baseline and T+M Periods. Using a parametric analysis, comparisons for the ZX008 groups to placebo were estimated from an ANCOVA model with treatment group (3 levels) and age group (<6 years, ≥6 years) as factors, log baseline number of convulsive seizure free days as a covariate and log convulsive seizure free days (Titration+Maintenance, or Maintenance Period) as response. The mean (SD) number of convulsive seizure free days per 28 days during the Baseline Period was 12.6 (7.68), 15.7 (6.80), and 14.6 (7.59) for the placebo, 0.2 and 0.8 mg/kg/day groups, respectively. […] The mean (SD) number of convulsive seizure free days for the 0.2 mg/kg/day group was 17.9 (8.04) days, which was numerically greater than placebo, but was not statistically significant (p=0.514). Similar results were obtained with a nonparametric analysis where the difference between the 0.8 mg/kg/day and placebo groups was statistically significant (p<0.001) while the difference between the 0.2 mg/kg/day and placebo groups was not (p=0.102).

[4] = long-term fenfluramine treatment

## CCNC(C)Cc1cccc(C(F)(F)F)c1 (racemic) [fenfluramine, 3-trifluoromethyl-N-ethylamphetamine]
[1]; fenfluramine and valproate, average 0.34 mg/kg/day for between 1 and 22 years
  Seizure-free Patients: 66.6%
[1]; [4]
  heart valve defects by echocardiography: No clinically relevant defects were identified
  reduction in seizures: 75%
[1]; not only photosensitive or self-induced seizures
  incidence of all types of seizures: effectively reduced the incidence of all types of seizures
[2]; Dravet patients 6 years of age or less
  reduction in MCSF: sustained, clinically meaningful reduction in MCSF
[2]; overall study population
  median decrease in MCSF over the entire observation period compared to baseline: −64%
[2]; patients <6 years old at entry
  median decrease in MCSF over the entire observation period compared to baseline: −76%
[2]; OLE, patients <6 years old
  most frequently reported AE's: pyrexia, nasopharyngitis, upper respiratory tract infections, and diarrhea
[3]; 0.2 mg/kg/day group
  mean (SD) number of non-convulsive seizures (all types) per 28 days: 193.6 (478.45) per 28 days
[3]; 0.2 mg/kg/day
  reduction from Baseline in non-convulsive seizure frequency: 9.7%
  mean (SD) non-convulsive seizure frequency per 28 days: 93.7 (219.69) per 28 days
[3]; 0.8 mg/kg/day group
  mean (SD) number of non-convulsive seizures (all types) per 28 days: 335.2 (758.58) per 28 days
[3]; 0.8 mg/kg/day
  reduction from Baseline in non-convulsive seizure frequency: 59.1%
  mean (SD) non-convulsive seizure frequency per 28 days: 127.9 (297.39) per 28 days
